TGI and GI50 data for 24 compounds are collected here from PubChem BioAssay (NCI).

Structures are written as SMILES.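 Grown in 96-well plates, cells were treated for 48 hours with each compound at five concentrations. Insufficient inhibition: endpoint recorded as highest concentration tested. Abbreviation: GI50, concentration required for 50% inhibition of growth. TGI is the concentration that stops growth completely.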

In one assay the test system is 786-0 renal. Nature of the assay: inhibition of tumour cell growth, NCI panel, 48 h.
Compound `O=[N+]([O-])c1ccc(NSc2ccccc2)cc1` returned a TGI of 30.8 µM.
On the same count and under the same terms, the same measure for `Cc1c(C(=O)/C=C/c2cccc3ccccc23)[n+](=O)c2ccccc2n1[O-]`: 26.4 µM; for `COc1cc([C@@H]2c3cc4c(cc3[C@@H](NC(=O)c3cccc([N+](=O)[O-])c3)C3COC(=O)[C@@H]32)OCO4)cc(OC)c1O` (stereo not given in full): 0.833 µM; for `CCCNC(=O)OCc1c(COC(=O)NCCC)c(-c2ccc(Cl)c(Cl)c2)n2c1CCC2`: 11.4 µM.
With `CN(C)c1ccc2c(c1)oc(=O)c1ccccc12`, the TGI is 26.5 µM.
Same read-out and setting: the same measure for `C/C(=N\NC(N)=S)c1ccc(C)cc1C`: > 100 µM.
On to `CN(C)CCNc1nc2ccccc2c2[nH]c3ccccc3c12`, for which the GI50 is 0.396 µM and the TGI amounted to 2.51 µM.
For `O=C(N/N=C/c1cccc(O)c1O)N/N=C/c1cccc(O)c1O`, the TGI was > 100 µM.
Still for that read-out and setting: the same measure for `COc1cc2c(cc1OC)C1C=NC(C(=O)O)(C2)c2ccccc21` (stereo not given): > 100 µM; for `CN(C)S(=O)(=O)Nc1ccccn1`: > 100 µM.
The same measure, in the same setting: the same measure for `CCCCCCCCCCCCCCC1OC(=O)c2ccccc21` (stereo not given): > 100 µM.
On the same count and under the same terms, the same measure for `CN(C)CCNC(=O)c1cccc2nc3c(Cl)cccc3nc12`: > 49.1 µM; for `CC(C)(C)C1=NC(S)NC(CCC(=O)Nc2ccccc2[N+](=O)[O-])=C1` (stereo not given): > 100 µM.

Another assay relates to HCT-15 colon. The assay is described as follows: inhibition of tumour cell growth, NCI panel, 48 h.
`C1CN2N3CCCC23C1` (stereo not given): the TGI was > 100 µM.
For `CC[n+]1ccc2c(c1)C(=O)c1nccc3c1c-2nc1ccccc13`, the GI50 is 2.86 µM and the TGI was > 33.3 µM.
In the same order, the values of `CCCCCCCCCCCCOC1C(CNCC2OC3OC(C)(C)OC3C2NC(=O)Nc2ccc(C(=O)OCC)cc2)OC2OC(C)(C)OC21` (stereo not given) are 2.46 µM and 6.14 µM.
As for `NNC(=O)c1cnn(-c2ccnc3c(C(F)(F)F)cccc23)c1N`, the GI50 is > 100 µM and the TGI was > 100 µM.
For `Cc1c(Cl)cccc1Nc1ncccc1C(=O)O`, the GI50 is 38.1 µM and the TGI is > 100 µM.
With `C#CC(C)(C)Oc1cc(O)c2c(=O)c3ccccc3n(C)c2c1`, the TGI is > 100 µM.
With `COc1ccc(CNC(=O)COc2ccc(/C=N/Nc3nc4ccccc4s3)cc2)cc1`, the GI50 was 3.44 µM and the TGI was > 100 µM.
In the case of `COC(=O)c1c(OC)cccc1C(=O)O`, the TGI was > 100 µM.
On the same count and under the same terms, the same measure for `CC1=CCCC(OC(N)=O)C1` (stereo not given): > 100 µM; for `c1ccc(-c2nnc(-c3nn(-c4ccccc4)c4nc5ccccc5nc34)o2)cc1`: > 100 µM; for `O=[N+]([O-])c1ccc(NSc2ccccc2)cc1`: > 100 µM.
Still for that read-out and setting: the same measure for `Cc1c(C(=O)/C=C/c2cccc3ccccc23)[n+](=O)c2ccccc2n1[O-]`: 27 µM.
On the same count and under the same terms, the same measure for `COc1cc([C@@H]2c3cc4c(cc3[C@@H](NC(=O)c3cccc([N+](=O)[O-])c3)C3COC(=O)[C@@H]32)OCO4)cc(OC)c1O` (stereo not given in full): 4.31 µM.
In turn, `CCCNC(=O)OCc1c(COC(=O)NCCC)c(-c2ccc(Cl)c(Cl)c2)n2c1CCC2` displayed a TGI of 19.8 µM.
On the same count and under the same terms, the same measure for `CN(C)c1ccc2c(c1)oc(=O)c1ccccc12`: 27 µM.
Consider `C/C(=N\NC(N)=S)c1ccc(C)cc1C`, for which the TGI was > 100 µM.
Still for that read-out and setting: the same measure for `O=C(N/N=C/c1cccc(O)c1O)N/N=C/c1cccc(O)c1O`: > 100 µM; for `COc1cc2c(cc1OC)C1C=NC(C(=O)O)(C2)c2ccccc21` (stereo not given): > 100 µM.
Same read-out and setting: the same measure for `CN(C)S(=O)(=O)Nc1ccccn1`: > 100 µM; for `CN(C)CCNC(=O)c1cccc2nc3c(Cl)cccc3nc12`: 34.6 µM; for `CC(C)(C)C1=NC(S)NC(CCC(=O)Nc2ccccc2[N+](=O)[O-])=C1` (stereo not given): > 100 µM.

The test system of the next assay is RXF 393 renal. The assay is described as follows: inhibition of tumour cell growth, NCI panel, 48 h.
Turning to `NC1(CCCCCCCCCCC(=O)O)CNCCNCCNCCNC1`, the TGI is > 100 µM.
Still for that read-out and setting: the same measure for `C1CN2N3CCCC23C1` (stereo not given): > 100 µM.
As for `CC[n+]1ccc2c(c1)C(=O)c1nccc3c1c-2nc1ccccc13`, the GI50 was 0.93 µM and the TGI amounted to 3.68 µM.
For `CCCCCCCCCCCCOC1C(CNCC2OC3OC(C)(C)OC3C2NC(=O)Nc2ccc(C(=O)OCC)cc2)OC2OC(C)(C)OC21` (stereo not given), the GI50 was 2.73 µM and the TGI was 4.8 µM.
As for `NNC(=O)c1cnn(-c2ccnc3c(C(F)(F)F)cccc23)c1N`, the GI50 was > 100 µM and the TGI is > 100 µM.
Take `Cc1c(Cl)cccc1Nc1ncccc1C(=O)O`: the GI50 is > 100 µM and the TGI is > 100 µM.
With `C#CC(C)(C)Oc1cc(O)c2c(=O)c3ccccc3n(C)c2c1`, the TGI is > 100 µM.
On to `COc1ccc(CNC(=O)COc2ccc(/C=N/Nc3nc4ccccc4s3)cc2)cc1`, for which the GI50 is 1.75 µM and the TGI came out at 3.76 µM.
Consider `COC(=O)c1c(OC)cccc1C(=O)O`, for which the TGI is > 100 µM.
Consider `CC1=CCCC(OC(N)=O)C1` (stereo not given), for which the TGI is > 100 µM.
On the same count and under the same terms, the same measure for `c1ccc(-c2nnc(-c3nn(-c4ccccc4)c4nc5ccccc5nc34)o2)cc1`: 41.4 µM; for `O=[N+]([O-])c1ccc(NSc2ccccc2)cc1`: 40.9 µM; for `Cc1c(C(=O)/C=C/c2cccc3ccccc23)[n+](=O)c2ccccc2n1[O-]`: 21.9 µM.
With `COc1cc([C@@H]2c3cc4c(cc3[C@@H](NC(=O)c3cccc([N+](=O)[O-])c3)C3COC(=O)[C@@H]32)OCO4)cc(OC)c1O` (stereo not given in full), the TGI was determined as 9.97 µM.
Take `CCCNC(=O)OCc1c(COC(=O)NCCC)c(-c2ccc(Cl)c(Cl)c2)n2c1CCC2`: the TGI came to 9.35 µM.
The same measure, in the same setting: the same measure for `CN(C)c1ccc2c(c1)oc(=O)c1ccccc12`: 19.3 µM; for `C/C(=N\NC(N)=S)c1ccc(C)cc1C`: 75.2 µM.
Turning to `CN(C)CCNc1nc2ccccc2c2[nH]c3ccccc3c12`, the GI50 was 1.27 µM and the TGI came to 5.41 µM.
For the compound `O=C(N/N=C/c1cccc(O)c1O)N/N=C/c1cccc(O)c1O`, the TGI amounted to 86.4 µM.
Turning to `COc1cc2c(cc1OC)C1C=NC(C(=O)O)(C2)c2ccccc21` (stereo not given), the TGI was > 100 µM.
In the case of `CN(C)S(=O)(=O)Nc1ccccn1`, the TGI was > 100 µM.
As for `CCCCCCCCCCCCCCC1OC(=O)c2ccccc21` (stereo not given), the TGI was > 100 µM.
The compound `CN(C)CCNC(=O)c1cccc2nc3c(Cl)cccc3nc12` yielded a TGI of 16.6 µM.
As to `CC(C)(C)C1=NC(S)NC(CCC(=O)Nc2ccccc2[N+](=O)[O-])=C1` (stereo not given), the TGI was > 100 µM.
